In patent US8598202B2, “Aryl-hydroxyethylamino-pyrimidines and triazines as modulators of fatty acid amide hydrolase” (Janssen Pharmaceutica NV, priority 2008, dated 2013) one finds IC50 data, which are given here for 31 compounds.

Usually IC50 stands for the concentration at which inhibition is half-maximal.

Structures can show the parent of a compound that is named as a salt. Bounds are passed on as bounds.

In the first experiment the target is T1, Rat FAAH-1 (Rattus norvegicus, UniProt P97612).
T1 sequence (P97612 1-579): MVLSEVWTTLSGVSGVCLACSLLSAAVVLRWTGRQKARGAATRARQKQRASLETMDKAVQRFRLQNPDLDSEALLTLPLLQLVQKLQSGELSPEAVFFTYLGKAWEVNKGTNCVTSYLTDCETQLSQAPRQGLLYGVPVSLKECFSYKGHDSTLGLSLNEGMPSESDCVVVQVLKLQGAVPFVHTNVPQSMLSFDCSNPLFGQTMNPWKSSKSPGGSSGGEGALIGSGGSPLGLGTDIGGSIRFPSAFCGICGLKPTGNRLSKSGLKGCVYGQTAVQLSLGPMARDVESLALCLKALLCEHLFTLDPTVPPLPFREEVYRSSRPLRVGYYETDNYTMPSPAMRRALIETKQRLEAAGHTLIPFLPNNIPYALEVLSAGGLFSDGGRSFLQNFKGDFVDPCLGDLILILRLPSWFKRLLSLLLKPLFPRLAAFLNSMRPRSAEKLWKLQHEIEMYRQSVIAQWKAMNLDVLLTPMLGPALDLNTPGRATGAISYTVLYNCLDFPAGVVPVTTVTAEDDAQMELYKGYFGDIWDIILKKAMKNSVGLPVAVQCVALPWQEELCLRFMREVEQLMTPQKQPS
The experiment is described as follows: Assay Method 2: rat FAAH-1 assay, 3H-anandamide hydrolysis in homogenate of SK-N-MC cells transfected with rat FAAH.
Conditions: not given
As for `Cc1c(NC[C@H](O)c2ccccc2)ncnc1-c1ccc(C(F)(F)F)c(F)c1` [Example 48, (1R)-2-({6-[3-Fluoro-4-(trifluoromethyl)phenyl]-5-methylpyrimidin-4-yl}amino)-1-phenylethanol trifluoroacetic acid salt], the midpoint of inhibition, the IC50, lay at 1500 nM.

The compound `OC(CNc1cc(-c2ccc(Cl)cc2)ncn1)c1ccccc1` (centres unmarked) [Example 2, 2-{[6-(4-Chlorophenyl)pyrimidin-4-yl]amino}-1-phenylethanol] yielded an IC50 of 1300 nM.

Regarding `OC(CNc1cc(-c2ccc(C(F)(F)F)c(Cl)c2)ncn1)c1cc(-c2ccc(Cl)cc2)no1` (centres unmarked) [Example 214, 1-[3-(4-Chloro-phenyl)-isoxazol-5-yl]-2-[6-(3-chloro-4-trifluoromethyl-Phenyl)-pyrimidin-4-ylamino]-ethanol], the IC50 was 160 nM.

On to `N#Cc1ccc(C(O)CNc2cc(-c3ccc(C(F)(F)F)c(Cl)c3)ncn2)cc1` (centres unmarked) [Example 191, 4-[2-({6-[3-Chloro-4-(trifluoromethyl)phenyl]pyrimidin-4-yl}amino)-1-hydroxyethyl]benzonitrile], for which the IC50 was 7 nM.

With `O[C@@H](CNc1cc(-c2ccc(C(F)(F)F)c(Cl)c2)nc(N2CCC2)n1)c1ccccc1` [Example 161, (1R)-2-({2-Azetidin-1-yl-6-[3-chloro-4-(trifluoromethyl)phenyl]pyrimidin-4-yl}amino)-1-Phenylethanol trifluoroacetic acid salt], the IC50 is 580 nM.

The compound `Cc1cc(-c2cc(NC[C@H](O)c3ccccc3)ncn2)cnc1F` [Example 75, (1R)-2-{[6-(6-Fluoro-5-methylpyridin-3-yl)pyrimidin-4-yl]amino}-1-phenylethanol] came in with a half-inhibitory concentration (IC50) greater than 10000 nM.

Another experiment has as its target T2, FAAH (Homo sapiens, UniProt O00519).
T2 sequence (O00519 1-579): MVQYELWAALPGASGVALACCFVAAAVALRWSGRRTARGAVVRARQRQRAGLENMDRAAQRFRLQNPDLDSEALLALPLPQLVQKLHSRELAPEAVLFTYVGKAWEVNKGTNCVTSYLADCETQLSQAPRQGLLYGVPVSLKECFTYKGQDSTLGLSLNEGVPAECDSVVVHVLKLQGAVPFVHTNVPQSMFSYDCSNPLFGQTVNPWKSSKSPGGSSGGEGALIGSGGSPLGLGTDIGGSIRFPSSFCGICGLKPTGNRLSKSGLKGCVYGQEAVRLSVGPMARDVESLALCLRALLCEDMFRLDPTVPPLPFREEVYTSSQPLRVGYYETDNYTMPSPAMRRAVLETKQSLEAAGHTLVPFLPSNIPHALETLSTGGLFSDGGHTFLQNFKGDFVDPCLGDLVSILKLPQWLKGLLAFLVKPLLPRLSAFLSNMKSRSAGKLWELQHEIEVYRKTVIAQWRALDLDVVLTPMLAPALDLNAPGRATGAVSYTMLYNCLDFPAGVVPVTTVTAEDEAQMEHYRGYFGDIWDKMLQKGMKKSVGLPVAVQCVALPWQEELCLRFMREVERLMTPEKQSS
Nature of the experiment: Assay Method 1: FAAH assay, 3H-anandamide hydrolysis in homogenate of T84 cells or SK-N-MC cells transfected with human FAAH.
Conditions: not given
`Cc1c(NC[C@H](O)c2ccccc2)ncnc1-c1ccc(C(F)(F)F)c(F)c1` [Example 48, (1R)-2-({6-[3-Fluoro-4-(trifluoromethyl)phenyl]-5-methylpyrimidin-4-yl}amino)-1-phenylethanol trifluoroacetic acid salt] displayed an IC50 of 105 nM.

`OC(CNc1cc(-c2ccc(Cl)cc2)ncn1)c1ccccc1` (centres unmarked) [Example 2, 2-{[6-(4-Chlorophenyl)pyrimidin-4-yl]amino}-1-phenylethanol] gave an IC50 of 350 nM.

With `CCCOc1cccc(-c2cc(NC[C@H](O)c3ccccc3)ncn2)c1` [Example 98, (1R)-1-Phenyl-2-{[6-(3-propoxyphenyl)pyrimidin-4-yl]amino}ethanol], half-maximal inhibition (IC50) was put at 850 nM.

The compound `OC(CNc1cc(-c2ccc(C(F)(F)F)c(Cl)c2)ncn1)c1cc(-c2ccc(Cl)cc2)no1` (centres unmarked) [Example 214, 1-[3-(4-Chloro-phenyl)-isoxazol-5-yl]-2-[6-(3-chloro-4-trifluoromethyl-Phenyl)-pyrimidin-4-ylamino]-ethanol] came in with an IC50 of 36 nM.

On to `N#Cc1ccc(C(O)CNc2cc(-c3ccc(C(F)(F)F)c(Cl)c3)ncn2)cc1` (centres unmarked) [Example 191, 4-[2-({6-[3-Chloro-4-(trifluoromethyl)phenyl]pyrimidin-4-yl}amino)-1-hydroxyethyl]benzonitrile], for which half-maximal inhibition (IC50) required 19 nM.

In the case of `O[C@@H](CNc1cc(-c2cnn(Cc3ccccc3)c2)ncn1)c1ccccc1` [Example 74, (1R)-2-{[6-(1-Benzyl-1H-pyrazol-4-yl)pyrimidin-4-yl]amino}-1-phenylethanol], the IC50 is 101 nM.

With `Oc1ccc(C(O)CNc2cc(-c3ccc(OC(F)(F)F)cc3)ncn2)cc1` (centres unmarked) [Example 110, 4-{1-Hydroxy-2-[(6-{4-[(trifluoromethyl)oxy]phenyl}pyrimidin-4-yl)amino]ethyl}phenol], the IC50 is 5000 nM.

Regarding `CCCCOc1ccc(-c2cc(NC[C@H](O)c3ccccc3)ncn2)cc1` [Example 34, (1R)-2-{[6-(4-Butoxyphenyl)pyrimidin-4-yl]amino}-1-phenylethanol trifluoroacetic acid salt], the IC50 is 500 nM.

Regarding `COc1ccc(-c2cc(NCC(O)c3ccccc3)ncn2)cc1OC` (centres unmarked) [Example 229, 2-[6-(3,4-Dimethoxy-phenyl)-pyrimidin-4-ylamino]-1-phenyl-ethanol], 408 nM corresponded to half-maximal inhibition (IC50).

`CCOc1cccc(-c2cc(NC[C@H](O)c3ccccc3)ncn2)c1` [Example 97, (1R)-2-{[6-(3-Ethoxyphenyl)pyrimidin-4-yl]amino}-1-phenylethanol] came in with an IC50 of 580 nM.

`OC(CNc1cc(-c2ccc(Oc3ccccc3)cc2)ncn1)c1ccccc1` (centres unmarked) [Example 13, 1-Phenyl-2-({6-[4-(phenyloxy)phenyl]pyrimidin-4-yl}amino)ethanol] showed an IC50 of 35 nM.

Turning to `O=Cc1cccc(-c2cc(NC[C@H](O)c3ccccc3)ncn2)c1` [Example 23, 3-(6-{[(2R)-2-Hydroxy-2-phenylethyl]amino}pyrimidin-4-yl)benzaldehyde], the IC50 is 5000 nM.

Compound `COc1cc(OC(F)(F)F)ccc1-c1cc(NC[C@H](O)c2ccccc2)ncn1` [Example 153, (1R)-2-({6-[2-Methoxy-4-(trifluoromethoxy)phenyl]pyrimidin-4-yl}amino)-1-phenylethanol trifluoroacetic acid salt] yielded an IC50 of 303 nM.

Take `O[C@@H](CNc1cc(-c2cccc(OCC(F)(F)F)c2)ncn1)c1ccccc1` [Example 25, (1R)-1-Phenyl-2-[(6-{3-[(2,2,2-trifluoroethyl)oxy]phenyl}pyrimidin-4-yl)amino]ethanol]: the IC50 stood at 390 nM.

`COc1ccc(-c2cc(NCC(O)c3ccccc3)ncn2)cc1` (centres unmarked) [Example 147, 2-({6-[4-(Methyloxy)phenyl]pyrimidin-4-yl}amino)-1-phenylethanol] showed an IC50 of 205 nM.

As for `CCOc1ccc(-c2cc(NC[C@H](O)c3ccccc3)ncn2)c(C)c1` [Example 154, (1R)-2-{[6-(4-Ethoxy-2-methylphenyl)pyrimidin-4-yl]amino}-1-phenylethanol trifluoroacetic acid salt], half-maximal inhibition (IC50) required 65 nM.

For `O=S(=O)(NC1CC1)c1ccc(-c2cc(NC[C@H](O)c3ccccc3)ncn2)cc1` [Example 67, N-Cyclopropyl-4-(6-{[(2R)-2-hydroxy-2-phenylethyl]amino}pyrimidin-4-yl)benzenesulfonamide], the IC50 stood at 20 nM.

As for `Nc1cccc(-c2cc(NCC(O)c3ccccc3)ncn2)c1` (centres unmarked) [Example 240, 2-[6-(3-Amino-phenyl)-pyrimidin-4-ylamino]-1-phenyl-ethanol], the IC50 is greater than 10000 nM.

Take `CS(=O)(=O)c1nc(NC[C@H](O)c2ccccc2)cc(-c2ccc(C(F)(F)F)c(Cl)c2)n1` [Example 138, (1R)-2-({6-[3-Chloro-4-(trifluoromethyl)phenyl]-2-(methylsulfonyl)pyrimidin-4-yl}amino)-1-phenylethanol]: the IC50 was determined as 371 nM.

Take `C[S+]([O-])c1nc(NC[C@H](O)c2ccccc2)cc(-c2ccc(C(F)(F)F)c(Cl)c2)n1` (stereo partly drawn) [Example 139, (1R)-2-({6-[3-Chloro-4-(trifluoromethyl)phenyl]-2-(methylsulfinyl)pyrimidin-4-yl}amino)-1-phenylethanol]: the IC50 turned out to be 2000 nM.

As to `OC(CNc1cc(-c2cccc(OC(F)(F)F)c2)ncn1)c1ccccc1` (centres unmarked) [Example 149, 1-Phenyl-2-[(6-{3-[(trifluoromethyl)oxy]phenyl}pyrimidin-4-yl)amino]ethanol], the IC50 is 412 nM.

Turning to `OC(CNc1cc(-c2cccc(Cl)c2)ncn1)c1ccccc1` (centres unmarked) [Example 9, 2-{[6-(3-Chlorophenyl)pyrimidin-4-yl]amino}-1-Phenylethanol], the IC50 came to 467 nM.

`Cc1cc(-c2cc(NC[C@H](O)c3ccccc3)ncn2)cc(C)c1OC(C)C` [Example 52, (1R)-2-({6-[3,5-Dimethyl-4-(1-methylethoxy)phenyl]pyrimidin-4-yl}amino)-1-phenylethanol trifluoroacetic acid salt] registered an IC50 of 1400 nM.

The compound `OC(CNc1cc(-c2ccccc2)ncn1)c1ccccc1` (centres unmarked) [Example 243, 1-Phenyl-2-(6-phenyl-pyrimidin-4-ylamino)-ethanol] returned an IC50 greater than 10000 nM.

Regarding `CC(O)(CNc1cc(-c2ccc(C(F)(F)F)c(Cl)c2)ncn1)c1ccccc1` (centres unmarked) [Example 166, 1-({6-[3-Chloro-4-(trifluoromethyl)phenyl]pyrimidin-4-yl}amino)-2-Phenylpropan-2-ol], the IC50 was 3000 nM.

`Cc1cccc(-c2cc(NCC(O)c3ccccc3)ncn2)c1` (centres unmarked) [Example 148, 2-{[6-(3-Methylphenyl)pyrimidin-4-yl]amino}-1-phenylethanol] showed an IC50 of 3000 nM.

Compound `OC(CNc1cc(-c2ccc(OC(F)(F)F)cc2)ncn1)c1ccccn1` (centres unmarked) [Example 123, 1-Pyridin-2-yl-2-[(6-{4-[(trifluoromethyl)oxy]phenyl}pyrimidin-4-yl)amino]ethanol] yielded an IC50 of 700 nM.

Still in this experiment, the particulars now being: read-out: Assay 1 IC50; Table 2, Comparative Examples; human FAAH.
Turning to `OC(CNc1cc(-c2ccccc2)ncn1)c1ccccc1` (centres unmarked) [CE3, 1-Phenyl-2-(6-phenyl-pyrimidin-4-ylamino)-ethanol, reference compound], the IC50 is greater than 10000 nM.

Turning to `Nc1cccc(-c2cc(NCC(O)c3ccccc3)ncn2)c1` (centres unmarked) [CE8, 2-[6-(3-Amino-phenyl)-pyrimidin-4-ylamino]-1-phenyl-ethanol, reference compound], the IC50 is greater than 10000 nM.
